Where “and” joins values, the source holds several entries; their conditions need not be identical. Equal entries are not always repeated.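 Five concentrations, 48 hours, 96-well plates. GI50: concentration for 50% inhibition of growth. TGI: total growth inhibition.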
What was measured:
Experiment in all cases: growth of human tumour cells (NCI), 48 h
CAKI-1 renal = tested on: CAKI-1 renal
HCT-15 colon = tested on: HCT-15 colon
LOX IMVI melanoma = tested on: LOX IMVI melanoma
NCI-H522 lung = tested on: NCI-H522 lung
NCI/ADR-RES ovarian = tested on: NCI/ADR-RES ovarian
OVCAR-3 ovarian = tested on: OVCAR-3 ovarian
SK-OV-3 ovarian = tested on: SK-OV-3 ovarian
SN12C renal = tested on: SN12C renal

Compound | GI50 (CAKI-1 renal) | TGI (CAKI-1 renal) | GI50 (HCT-15 colon) | TGI (HCT-15 colon) | GI50 (LOX IMVI melanoma) | TGI (LOX IMVI melanoma) | GI50 (NCI-H522 lung) | TGI (NCI-H522 lung) | GI50 (NCI/ADR-RES ovarian) | TGI (NCI/ADR-RES ovarian) | GI50 (OVCAR-3 ovarian) | TGI (OVCAR-3 ovarian) | GI50 (SK-OV-3 ovarian) | TGI (SK-OV-3 ovarian) | GI50 (SN12C renal) | TGI (SN12C renal)
COc1cnc2c(c1)C(=O)c1c-2n(CCCN2CCN(C)CC2)c(=O)c2cc(Cl)ccc12 | 2.97 µM | 18.4 µM | 4.08 µM | 27.9 µM | 0.779 µM | 18.9 µM | 6.32 µM | 52.1 µM | 0.979 µM | 24.5 µM | 15.1 µM | 29.3 µM | 10.1 µM | 36.4 µM | 10.2 µM | 58.2 µM
CO[C@H](C(=O)N[C@@H](CCCCNC(=O)OCc1ccccc1)C(=O)OC(C)(C)C)[C@@H]1Cc2cc3cc(OC4CC(OC5CC(O)C(O)C(C)O5)C(O)C(C)O4)c(C)c(O)c3c(O)c2C(=O)[C@H]1OC1CC(OC2CC(OC3CC(C)(O)C(O)C(C)O3)C(O)C(C)O2)C(O)C(C)O1 (stereo partly specified) | 1.04 µM | 3.42 µM | 2.55 µM | > 10 µM | 0.434 µM | 2.4 µM | 0.687 µM | 3.15 µM |  | > 10 µM | 1.39 µM | > 10 µM | 1.02 µM | 2.81 µM | 0.463 µM | 3.88 µM
Cn1cc(C2=C(c3c4n(c5ccccc35)CCC(CN)CC4)C(=O)NC2=O)c2ccccc21 (stereo unspecified) | 4.75 µM | 10.7 µM | 4.82 µM | 9.93 µM | 5.26 µM | 11.4 µM | 4.08 µM | 8.11 µM | > 25 µM | > 25 µM | 4.31 µM | 8.75 µM | 4.99 µM | 11.6 µM | 3.87 µM | 8.14 µM
CN1CCN(Cc2ccc(NC(=O)c3cncc(C#Cc4c(N)ncc5cc(F)ccc45)c3)cc2C(F)(F)F)CC1 | 3.3 µM | 10.1 µM | 0.631 µM | 1.31 µM | 0.587 µM | 1.26 µM | 2.01 µM | 5.45 µM | 1.03 µM | 2.46 µM | 2.43 µM | 4.98 µM | 6.3 µM | 13 µM | 1.39 µM | 3.84 µM
COc1cc(-c2nc3ccccc3s2)ccc1OCc1nc2n(n1)S(=O)(=O)c1ccccc1N2C | > 100 µM | > 100 µM | > 100 µM | > 100 µM | > 100 µM | > 100 µM | 96.8 µM | > 100 µM | > 100 µM | > 100 µM | 62.4 µM | > 100 µM | > 100 µM | > 100 µM | > 100 µM | > 100 µM
C/C(=C\c1ccn(-c2ccc(N)cc2)n1)[C@@H]1C[C@@H]2O[C@]2(C)CCC[C@H](C)[C@H](O)[C@@H](C)C(=O)C(C)(C)[C@@H](O)CC(=O)O1 | 0.202 µM | > 50 µM | 0.0297 µM | > 50 µM | 0.0273 µM | > 50 µM | 0.0356 µM | 0.342 µM | 0.106 µM |  | 0.0175 µM | 1.6 µM | 0.226 µM | > 50 µM | 0.201 µM | > 50 µM
O=C1/C(=C/c2ccc(Cl)cc2)CN(C(=O)C(Cl)Cl)C/C1=C\c1ccc(Cl)cc1 | 0.264 µM | 0.865 µM | 0.0577 µM | 0.793 µM | 0.0321 µM | 0.121 µM | 0.31 µM | 1.4 µM | 0.358 µM | > 32.9 µM | 0.151 µM | 0.407 µM | 0.531 µM | 1.74 µM | 0.203 µM | 0.541 µM
CC(C)=CCC/C(C)=C/CC/C(=C/COP(=O)(OCc1ccc([N+](=O)[O-])o1)N(C)CCCCCl)C(C)(C)C (stereo unspecified) | 5.78 µM | 22 µM | 1.66 µM | 6.79 µM | 1.28 µM | 4.68 µM | 2.66 µM | 10 µM | 16.3 µM | 38.5 µM | 1.94 µM | 3.66 µM | 18.1 µM | 38.7 µM | 2.6 µM | 7.27 µM
COc1cc2c(cc1OC)[C@@]1(C)C(=O)c3cc4c(cc3[C@H]1N(C)C2=O)OCO4 | 37.3 µM | > 100 µM | > 100 µM | > 100 µM | 48.4 µM | > 100 µM | 10.4 µM | 85.6 µM | 59.6 µM | > 100 µM | 96.2 µM | > 100 µM | 95.5 µM | > 100 µM | 82.4 µM | > 100 µM
O=C(O)CCC1CCC(c2cc(F)ccc2F)(S(=O)(=O)c2ccc(Cl)cc2)CC1 (stereo unspecified) |  | 45.1 µM and > 100 µM | 33.7 µM and 47.8 µM | > 100 µM | 40.3 µM and > 66.5 µM | > 100 µM | 20.7 µM and > 100 µM | 79.7 µM and > 100 µM | 25.8 µM and > 74.3 µM | 99.7 µM and > 100 µM | 22.7 µM and > 100 µM | 63.5 µM and > 100 µM | 32.1 µM and > 100 µM | > 100 µM | 49 µM and > 100 µM | > 100 µM
NC(=O)Oc1cc(OC(N)=O)cc(N(CCCl)CCCl)c1 | 2.97 µM | 80.4 µM | 6.31 µM | > 100 µM | 2.3 µM | > 100 µM | 2.08 µM | 6.12 µM | 5.45 µM | > 100 µM | 4.74 µM | 25.9 µM | 13.1 µM | > 100 µM | 2.41 µM | > 100 µM
COc1ccc2c(c1)Cc1c-2c(NN)nc2ccccc12 | 39.8 µM | > 100 µM | 25.5 µM | > 100 µM | 21.6 µM | 78.8 µM | 20.2 µM | 58.5 µM | 21 µM | > 100 µM | 16.5 µM | 38.4 µM | 16.9 µM | 77.6 µM | 40.3 µM | > 100 µM
COc1cc(C(=O)n2nc(N3CCN(C)CC3)c3cc(N)ccc32)cc(OC)c1OC | 4.52 µM | > 100 µM | 3.45 µM | > 100 µM | 4.23 µM | 17.1 µM | 2.01 µM | 8.87 µM | 4.2 µM | > 100 µM | 2.39 µM | 5.62 µM | 4.26 µM | 93.2 µM | 4.42 µM | > 100 µM
CCOC(=O)c1c(Cl)c2c(n1Cc1cc(OC)cc(OC)c1)-c1oncc1CCC2 | 0.29 µM | > 60.7 µM | 0.387 µM | > 100 µM | 0.709 µM | > 100 µM | 0.0304 µM | 0.195 µM | 0.227 µM | > 61.6 µM | 0.253 µM | 2.51 µM | 0.4 µM | 49.6 µM | 0.77 µM | > 100 µM
